Experimental data published in patent publication US20160008336A1, “HDAC INHIBITORS FOR THE TREATMENT OF TRAUMATIC BRAIN INJURY” (Lixte Biotechnology, Inc., priority 2013, published 2016).
Entries after “also recorded” stand apart in the source; their conditions may differ.

What was measured:
[1] = test system: Nestin; assay: Immunofluorescence / immunohistochemistry after TBI, Nestin; assay type: in vivo, rat
Protocol: (§1) TBI rodent model animals are treated with HDACis post-surgery at 4 h, 24 h and 48 h. The efficiency of HDACi treatment is evaluated as shown in FIG. 9 by studying the following parameters: • A=FDG-PET imaging analysis • B=Rota behavior test • C=Pathology analysis (H&E, IHC, IF, & gross) • D=Frozen samples (2D gel and WB) • E=Harvest animals and procure brain samples • Tx=HDI treatment
(§2) Immunohistochemistry staining is performed using commercially available GFAP and Nestin primary antibodies (Abcam) on formalin-fixed paraffin-embedded tissue mounted on positively charged slides. The expression of Nestin is thought to identify neural stem and progenitor cells within the central nervous system. GFAP expression, however, is thought to represent astrocyte activation. Samples are labeled and visualized using a DAB staining kit (EnvisionKit; Dako, Carpinteria, Calif., USA). Immunofluorescence staining is also performed (with primary antibodies for GFAP and Nestin) in order to best assess the spatial and temporal pattern of expression of molecular markers associated with astrocyte activation and gliosis observed during the brain tissue injury repair process. The specimens are visualized using a Zeiss LSM 510 confocal microscope (Carl Zeiss, Thornwood, N.Y., USA).

[2] = test system: post-traumatic brain injured rats; assay: Behavioral motor performance (balance beam) test after TBI; assay type: in vivo, rat; conditions: for motor skills tests: rats post-TBI, activity expected analogous to 205
Protocol: (§3) The rats are anesthetized as described above. The rodent's head is be shaved, the animal placed in a stereotaxic device, the skin is prepared as in the Aseptic Techniques described above and the skull exposed using a small surgical incision over the temporal scalp. A small surgical incision (9-10 mm), a burr hole in the skull (5-6 mm), and a single contusion over the right frontal cortex is performed (FIG. 7). A 5.0 mm burr hole is drilled into the skull with a hand-held trephine to expose the dura mater. […] A single contusion is then made onto the surface of the dura (tip penetration depth of 2.1 mm, velocity of 5 m/s) over the left frontal cortex. Following CCI, the burr hole is covered with a bone flap, sealed with Jet Denture Repair Professional Package, and then the incision is closed with non-absorbable suture in a simple interrupted pattern. Sham-treated controls are treated similarly, but the impactor is not activated.
as §1
Balance Beam Test: The balance beam is a test of motor coordination (3-4). It is also a useful assay for sedation and joint pathology. Several beams are available. In general the round beams are harder than the square beams, and the thinner the beam the harder the test. In this test, animals have to walk and cross a round balance beam (like across one meter bridge-bar) to test their balance and motor skills. The score is recorded compared to sham group: • 100%: walk balance and cross whole balance beam. • 10%-90%: walk balance and cross balance beam from 10 cm to 90 cm. • 0%: walk unbalance and slip down

[3] = test system: Caspase 3; assay: Western blot of TBI brain tissue, Caspase 3; assay type: in vivo, rat; conditions: for Pro-Caspase 3 expression: rat brain cells following TBI
Protocol: as §1
(§4) Sections of frozen tissue protein from normal brain and TBI tissues in the injury area are extracted in T-PER solution, sonicated and centrifuged at 15,000 g at 4° C. to remove insoluble debris. The supernatant is used as the lysate. The protein concentration in each sample is measured by a colorimetric assay (Bio-Rad Protein Assay Kit) (Bio-Rad; Hercules, Calif.). Samples are denatured at 95° C. for 5 minutes in protein loading buffer. Equal amounts of protein at thirty micrograms of each lysate is loaded onto 4%-20% SDS-polyacrylamide gel (Invitrogen), and the proteins are electrophoretically transferred to nitrocellulose membranes and blocked with 5% milk solution. Detection of protein-bound primary antibodies is performed with a horseradish peroxidase-conjugated secondary antibody specific to rabbit or mouse immunoglobulin for one hour and an enhanced chemiluminescence system. Expression of specific proteins in each sample are determined and TBI injury tissue protein expression are compared to normal brain.

[4] = test system: phosphorylated-AKT; assay: Western blot of TBI brain tissue, p-AKT; assay type: in vivo; conditions: rat brain cells following TBI; for p-Akt expression: activity expected analogous to 205
Protocol: as §1, §4

[5] = test system: rodent brains following TBI (controlled cortical impact); assay: FDG-PET imaging of rat brains after TBI; assay type: in vivo; conditions: for glucose uptake levels: rat brain cells following TBI, activity expected analogous to 205
Protocol: as §3, §1
FDG-PET imaging is conducted in larger animal cohorts treated with different drug concentrations to further confirm HDACis potential therapeutic effect in treating TBI and in increasing […].
^18F-FDG is purchased from the Nuclear Pharmacy of Cardinal Health, and reconstituted with sterile saline. PET scans and image analysis are performed using an Inveon microPET scanner (Siemens Medical Solutions). Each rat is injected with 18.5 MBq (500 μCi) of ^18F-FDG via tail vein. All the rats are maintained under anesthesia and warmed condition. 10 min static scans are acquired at 1 h after injection. The images are reconstructed using a two-dimensional ordered-subset expectation maximum (OSEM) algorithm, and no correction is applied for attenuation or scatter. For each microPET scan, regions of interest (ROIs) are drawn over the brain and muscle region using vendor software ASI Pro 5.2.4.0 on decay-corrected whole-body coronal images. The radioactivity accumulation within brain, heart and brown fat are obtained from mean pixel values within the multiple ROI volumes and then converted to megabecquerels (MBq) per milliliter […] using a conversion factor. These values are then divided by the administered activity to obtain (assuming a tissue density of 1 g/ml) an image-ROI-derived percent injected dose per gram (% ID/g).

[6] = test system: TBI damage area of rodent brain; assay: Pathological analysis (H & E staining) and gross appearance after TBI; assay type: in vivo, rat
Protocol: as §3, with “Sham-treated controls are treated similarly, but the impactor is not activated.” left out
as §1
Brain injury areas are measured and calculated post-TBI at 4 hours, day 1, and week (according to FIG. 9). […]

[7] = relative to SAHA; cited from earlier work
[8] = test system: GFAP; assay: Immunofluorescence / immunohistochemistry after TBI, GFAP; assay type: in vivo, rat; conditions: vs sham and TBI untreated brains, FIG. 6
Protocol: as §1, §2

[9] = test system: transformed cells; conditions: in vitro and in vivo; background; cited from earlier work
[10] = activity expected analogous to 205

Row | Structure (SMILES) | formation of new stem-like proliferative neural cells following TBI [1, 10] | motor skills tests [2] | Pro-Caspase 3 expression [3, 10] | p-Akt expression [4] | glucose uptake levels [5] | also measured
1 | O=C(CCCCCNC(=O)c1ccccc1S)Nc1ccccc1 [Compound 201, 2-Mercapto-N-[5-(phenyl-3-ylcarbamoyl)pentyl]benzamide] | induce formation | perform significantly better | decrease | increase | increase | 
2 | O=C(NCCCCCCNC(=O)c1ccccc1O)c1ccccc1O [Compound 203] | induce formation | perform significantly better | decrease | increase | increase | 
3 | O=C(NCCCCCCNC(=O)c1ccccc1S)c1ccccc1S [Compound 204] | induce formation | perform significantly better | decrease | increase | increase | 
4 | O=C(CCCCCNC(=O)c1ccccc1S)Nc1cccnc1 [Compound 205, 2-Mercapto-N-[5-(pyridin-3-ylcarbamoyl)pentyl]benzamide] |  |  |  |  |  | formation of new stem-like proliferative neural cells following TBI ([1]; following TBI): induced formation; Nestin staining / expression ([1]; vs sham and TBI untreated brains, FIG. 6): increased; behavioral motor performance (motor skill tests) ([2]; post-injury administration, 10 mg/kg, one meter bar, FIG. 4): improves behavioral performance; also recorded: performed significantly better; Cleaved Caspase 3 expression ([3]; Western blot, FIG. 5a): significantly decreased; Pro-Caspase 3 expression ([3]; FIG. 5a): decreased; H & E staining: reactive gliosis and cellularity ([6]; FIG. 3): increased reactive gliosis (arrow) and more active brain cells observed; also recorded: increased reactive gliosis (as well as increased cellularity); gross appearance of TBI damage area / scarring ([6]; gross post-mortem examination, FIG. 2): improved; also recorded: much less scaring and less appearance of obvious injury; also recorded: reduced scarring; half-life in vivo [7]: longer half-life in vivo; p-AKT expression ([4]; FIG. 5b): increased; GFAP staining / expression [8]: increased; glucose uptake levels at the site of injury (FDG-PET) ([5]; rats post-TBI, treated post-surgery at 4 h, 24 h and 48 h, FIG. 1): significantly increased; also recorded: increased glucose levels; angiogenic activity in the brain ([5]; rodent model of TBI, post-injury administration): up-regulated angiogenic activity
5 | CN(C)c1ccc(NC(=O)CCCCCNC(=O)c2ccccc2S)cc1 [Compound 206] | induce formation | perform significantly better | decrease | increase | increase | 
6 | O=C(CCCCCNC(=O)c1cc(Cl)ccc1S)Nc1cccnc1 [Compound 207a] | induce formation | perform significantly better | decrease | increase | increase | 
7 | O=C(NCCCCCNC(=O)c1ccccc1S)c1cccnc1 [Compound 208] | induce formation | perform significantly better | decrease | increase | increase | 
8 | Nc1ccc(NC(=O)CCCCCNC(=O)c2ccccc2S)cc1 [Compound 209] | induce formation | perform significantly better | decrease | increase | increase | 
9 | O=C(CCCCCNC(=O)c1cc(Cl)ccc1S)Nc1ccccc1 [Compound 210] | induce formation | perform significantly better | decrease | increase | increase | 
10 | COc1ccc(S)c(C(=O)NCCCCCC(=O)Nc2ccccc2)c1 [Compound 211] | induce formation | perform significantly better | decrease | increase | increase | 
11 | O=C(CCCCCCNC(=O)c1ccccc1S)Nc1ccccc1 [Compound 212] | induce formation | perform significantly better | decrease | increase | increase | 
12 | O=C(CCCCCCCNC(=O)c1ccccc1S)Nc1ccccc1 [Compound 213] | induce formation | perform significantly better | decrease | increase | increase | 
13 | O=C(CCCCCCCCCCNC(=O)c1ccccc1S)Nc1ccccc1 [Compound 214] | induce formation | perform significantly better | decrease | increase | increase | 
14 | O=C(CCCCCCC(=O)Nc1ccccc1)NO [SAHA, Suberoylanilide hydroxamic acid] |  |  |  |  |  | growth arrest and death of transformed cells [9]: causes growth arrest and death
